Data on 39 compounds can be found in patent US9079880B2, “Rho kinase inhibitors” (Boehringer Ingelheim International GmbH, priority 2010, dated 2015).

ROCKII (1-543), sequence (O75116 1-543): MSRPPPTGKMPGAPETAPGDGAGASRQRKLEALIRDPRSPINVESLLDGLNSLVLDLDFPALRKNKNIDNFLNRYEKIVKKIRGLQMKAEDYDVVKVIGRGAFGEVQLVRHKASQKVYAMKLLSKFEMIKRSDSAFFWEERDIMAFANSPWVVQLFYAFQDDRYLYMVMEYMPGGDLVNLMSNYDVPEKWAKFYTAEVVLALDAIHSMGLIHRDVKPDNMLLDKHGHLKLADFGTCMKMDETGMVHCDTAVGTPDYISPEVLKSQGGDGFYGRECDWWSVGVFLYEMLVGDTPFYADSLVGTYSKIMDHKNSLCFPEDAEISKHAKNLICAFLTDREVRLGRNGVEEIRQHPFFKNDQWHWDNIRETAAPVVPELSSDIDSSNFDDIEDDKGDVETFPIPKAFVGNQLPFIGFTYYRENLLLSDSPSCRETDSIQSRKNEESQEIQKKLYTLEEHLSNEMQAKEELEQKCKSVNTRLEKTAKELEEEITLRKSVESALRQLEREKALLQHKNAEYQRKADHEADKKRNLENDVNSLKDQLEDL

The target in the assay is ROCKII (1-543) (Homo sapiens (Human), UniProt O75116). The experiment in a line: Luciferin-Luciferase Assay (PKLight ATP detection). In kind it is biochemical. The settings on record: 750 nM ATP, 500 nM peptide, 7.5 nM kinase. The procedure:
1. Luciferin-Luciferase Assay
The activity of ROCKII (1-543) kinase was measured utilizing Cambrex PKLight ATP Detection Reagent, a homogeneous assay technology using luciferin-luciferase to quantify residual ATP. The assay was performed in 384-well low-volume, white, non-binding surface microtiter plates (Corning). The assay buffer was 25 mM HEPES, pH 7.5, 10 mM MgCl2, 50 mM KCl, 0.2% BSA, 0.01% CHAPS, 100 μM Na3VO4 and 0.5 mM DTT. Test compounds, dissolved in neat DMSO at 500 μg/mL, were serially diluted for dose response for a final starting concentration of 3 μg/mL in 1% DMSO of assay buffer. ROCKII (1-543) (62,408Da) was diluted in assay buffer to a final concentration of 7.5 nM in a total volume of 15 μL. Positive controls were reaction mixtures containing no test compound; negative controls (blanks) were reaction mixtures containing no kinase. After 15 minutes of pre-incubation of the test compounds with the kinase, a mixture of ATP and peptide substrate ([…]) in assay buffer was added to each well for a final concentration of 750 nM ATP and 500 nM peptide, respectively. After 90 minutes of incubation of the kinase reaction at 28° C. temperature, 10 μL of PKLight ATP Detection Reagent (warmed to room temperature previously) was added to each well. The assay plate was incubated at room temperature for additional 15 minutes and then read on an Analyst in luminescence mode. Dose-response experiments for each of the test compounds were conducted in quadruplet. IC50 values of test compounds represent 50% response of the positive control from the dose-response curve.
`C[C@@H](Oc1cccc(C(=O)Nc2nc3c(s2)CN(C)CC3)c1)C(=O)Nc1ccc(C#N)cc1` [Compound 19, 3-[(R)-1-(4-cyano-phenylcarbamoyl)-ethoxy]-N-(5-methyl-4,5,6,7-tetrahydro-thiazolo[5,4-c]pyridin-2-yl)-benzamide] yielded an IC50 of 35 nM.
As for `CN1CCc2ccc(NC(=O)c3cccc([C@H]4CCCN4C(=O)Nc4cccc(C#N)c4)c3)cc2C1` [Compound 109], the figure is 9.5 nM; as for `CN1CCc2nc(NC(=O)c3cccc(C4CCCN4C(=O)Nc4ccc(C(N)=O)cc4)c3)sc2C1` (stereo not drawn) [Compound 77], 5.4 nM; as for `CN1CCc2nc(NC(=O)c3cccc([C@H]4CCCN4C(=O)Nc4ccc(C#N)cc4)c3)sc2C1` [Compound 38], 15.3 nM.
As for `Cc1c(C(=O)N2CCC[C@@H]2c2cccc(C(=O)Nc3nc4c(s3)CN(C)CC4)c2)nnn1-c1nonc1N` [Compound 30], the figure is 33.4 nM.
Then `CN1CCc2nc(NC(=O)c3cccc(N4CCC[C@@H]4C(=O)Nc4cccc(C#N)c4)c3)sc2C1` [Compound 21], with 95.5 nM; and `COc1ccc(C(=O)N[C@H](C)c2cccc(C(=O)Nc3ccc4c(c3)CN(C)CC4)c2)cc1OC` [Compound 141], with 8.9 nM.
Take `N#Cc1cccc(NC(=O)N2CCCC2c2cccc(C(=O)Nc3nc4c(s3)CN(Cc3ccccc3)CC4)c2)c1` (stereo not drawn) [Compound 57]: the midpoint of inhibition, the IC50, lay at 20.9 nM.
Then `C[C@@H](NC(=O)Nc1ccc(C(N)=O)cc1)c1cccc(C(=O)Nc2ccc3c(c2)CN(C)CC3)c1` [Compound 153], with 9.5 nM.
As for `COc1ccc(C(=O)N[C@H](C)c2cccc(C(=O)Nc3ccc4c(c3)CN(C)CC4)c2)cc1C` [Compound 145], the figure is 10.5 nM; as for `N#Cc1cccc(NC(=O)N2CCC[C@@H]2c2cccc(C(=O)Nc3ccc4c(c3)CNCC4)c2)c1` [Compound 53], 11.5 nM.
Then `C[C@@H](NC(=O)Nc1cccc(C#N)c1)c1cccc(C(=O)Nc2ccc3c(c2)CN(C)CC3)c1` [Compound 147], with 18.9 nM.
For `CN1CCc2nc(NC(=O)c3cccc(C4CCCCN4C(=O)Nc4cccc(C#N)c4)c3)sc2C1` (stereo not drawn) [Compound 111], inhibition was half-maximal at 39.3 nM (IC50).
`N#Cc1cccc(NC(=O)N2CCC[C@@H]2c2cccc(C(=O)Nc3nc4c(s3)CN(Cc3ccccc3)CC4)c2)c1` [Compound 105] displayed an IC50 of 12.5 nM.
As for `CC[C@@H](NC(=O)Nc1cccc(C#N)c1)c1cccc(C(=O)Nc2nc3c(s2)CN(C)CC3)c1` [Compound 10], the figure is 5.7 nM; as for `CN1CCc2nc(NC(=O)c3cccc(C4CCCN(C(=O)Nc5cccc(C#N)c5)C4)c3)sc2C1` (stereo not drawn) [Compound 115], 77.5 nM.
Then `CN1CCc2nc(NC(=O)c3cccc([C@H]4CCCN4C(=O)c4ccc5[nH]c(=O)ccc5c4)c3)sc2C1` [Compound 84], with 20.8 nM.
As to `CN1CCc2nc(NC(=O)c3cccc([C@H]4CNC[C@@H]4C(=O)Nc4ccc(C#N)cc4)c3)sc2C1` [Compound 15], 21.2 nM corresponded to half-maximal inhibition (IC50).
As for `CN1CCc2nc(NC(=O)c3cccc(C4CCCCN4C(=O)Nc4ccc(C#N)cc4)c3)sc2C1` (stereo not drawn) [Compound 117], the figure is 18.7 nM; as for `CC[C@@H](NC(=O)c1ccc(OC)c(Cl)c1)c1cccc(C(=O)Nc2nc3c(s2)CN(C)CC3)c1` [Compound 14], 3.8 nM; as for `COc1ccc(C(=O)N[C@H](C)c2cccc(C(=O)Nc3ccc4c(c3)CN(C)CC4)c2)cc1Cl` [Compound 143], 14 nM.
Then `CC[C@@H](NC(=O)Nc1ccc(C#N)cc1)c1cccc(C(=O)Nc2nc3c(s2)CN(C)CC3)c1` [Compound 12], with 23.1 nM.
As for `CN1CCc2nc(NC(=O)c3cccc([C@H]4CCCN4C(=O)c4ccc(-c5cc[nH]n5)cc4)c3)sc2C1` [Compound 86], the figure is 44.9 nM; as for `C[C@@H](NC(=O)Nc1ccc(C#N)cc1)c1cccc(C(=O)Nc2ccc3c(c2)CN(C)CC3)c1` [Compound 149], 57.5 nM; as for `Cc1nc(-c2ccncc2)sc1C(=O)N1CCC[C@@H]1c1cccc(C(=O)Nc2nc3c(s2)CN(C)CC3)c1` [Compound 24], 12.5 nM.
Turning to `C[C@@H](NC(=O)Nc1cccc(C#N)c1)c1cccc(C(=O)Nc2nc3c(s2)CN(C)CC3)c1` [Compound 81], the IC50 came out at 5.5 nM.
As for `CN1CCc2nc(NC(=O)c3cccc(C4CCCN4C(=O)Nc4cccc(C#N)c4)c3)sc2C1` (stereo not drawn) [Compound 55], the figure is 8.8 nM.
As for `CN1CCc2nc(NC(=O)c3cccc(N4CCC[C@@H]4C(=O)Nc4ccc(C#N)cc4)c3)sc2C1` [Compound 5, (R)-1-[3-(5-methyl-4,5,6,7-tetrahydro-thiazolo[5,4-c]pyridin-2-ylcarbamoyl)-phenyl]-pyrrolidine-2-carboxylic acid (4-cyano-phenyl)-amide], the figure is 19.1 nM; as for `CN1CCc2ccc(NC(=O)c3cccc(C4CCCN4C(=O)Nc4cccc(C#N)c4)c3)cc2C1` (stereo not drawn) [Compound 59], 22.4 nM; as for `CN1CCc2nc(NC(=O)c3cccc([C@H](NC(=O)Nc4cccc(C#N)c4)C4CC4)c3)sc2C1` [Compound 155], 9.7 nM.
Then `CN1CCc2nc(NC(=O)c3cccc([C@H](NC(=O)Nc4ccc(C#N)cc4)C4CC4)c3)sc2C1` [Compound 157], with 45.7 nM; and `N#Cc1cccc(NC(=O)N2CCCC2c2cccc(C(=O)Nc3ccc4c(c3)CNCC4)c2)c1` (stereo not drawn) [Compound 47, 2-[3-(1,2,3,4-tetrahydro-isoquinolin-7-ylcarbamoyl)-phenyl]-pyrrolidine-1-carboxylic acid (3-cyano-phenyl)-amide trifluoroacetic acid], with 17.8 nM.
`C[C@@H](NC(=O)Nc1ccc(C#N)cc1)c1cccc(C(=O)Nc2nc3c(s2)CN(C)CC3)c1` [Compound 85] displayed an IC50 of 22.4 nM.
In the case of `CN1CCc2nc(NC(=O)c3cccc(C4CCCN4C(=O)Nc4ccc(C#N)cc4)c3)sc2C1` (stereo not drawn) [Compound 61], the IC50 worked out at 74.4 nM.
In turn, `CCCC[C@@H](NC(=O)c1ccc(OC)c(Cl)c1)c1cccc(C(=O)Nc2nc3c(s2)CN(C)CC3)c1` [Compound 8] yielded an IC50 of 38.1 nM.
As for `CCCC[C@@H](NC(=O)Nc1cccc(C#N)c1)c1cccc(C(=O)Nc2nc3c(s2)CN(C)CC3)c1` [Compound 4], the figure is 22.4 nM; as for `CN1CCc2nc(NC(=O)c3cccc([C@H]4CCCN4C(=O)c4cn5cc(C#N)ccc5n4)c3)sc2C1` [Compound 150], 25.5 nM.
As for `C[C@H](NC(=O)Nc1ccc(C#N)cc1)c1cccc(C(=O)Nc2nc3c(s2)CN(C)CC3)c1` [Compound 83], the figure is 37.8 nM.
As for `COc1ccc(C(=O)N[C@@H](c2cccc(C(=O)Nc3nc4c(s3)CN(C)CC4)c2)C2CC2)cc1Cl` [Compound 2], the figure is 2.8 nM.
